Test results taken from patent US20060128654A1, “Pharmaceutical formulation of cytidine analogs and derivatives” (priority 2004, published 2006).

Assay: Chemical stability of decitabine in cyclodextrin solutions (HPLC potency, % of total peak areas at 220 nm)
Type: physicochemical
Protocol: The chemical stability of decitabine in the cyclodextrin solutions and in the phophate buffer as prepared above was determined. The initial decitabine concentration for all the solutions was 17-18 mg/mL at the beginning of the experiment at 2-8° C.; 9-10 mg/mL at the beginning of the experiment at 25° C. Decitabine potency was assayed by a HPLC method, and expressed as a percentage of total peak areas at 220 nm.

For `Nc1ncn([C@H]2C[C@H](O)[C@@H](CO)O2)c(=O)n1` [decitabine, 5-aza-2′-deoxycytidine], the “Stability in aqueous solution with cyclodextrins as excipients” value (2-8° C., initial 17-18 mg/mL, FIG. 1) was “dramatically improve the stability”, the “Stabilization effect at various HPBCD concentrations” value (25° C., FIG. 3) was “concentration dependent” and the “Stability in aqueous solution with cyclodextrins as excipients” value (25° C., initial 9-10 mg/mL, FIG. 2) was “dramatically improve the stability”.
